These results are taken from patent publication US6664269B2, “Isoquinolinone derivatives” (Maybridge plc, priority 2001, dated 2003).

In one series the test system is HeLa cells. The experiment in a line: Dose Enhancing Factor: potentiation of bleomycin cell growth inhibition (SRB assay). Format: cell-based. To be noted: test compound 25 μM, bleomycin 0.5 μg/ml. Here is the method:
The Dose Enhancing Factor (DEF) is a ratio of the enhancement of cell growth inhibition elicited by the test compound in the presence of bleomycin compared to bleomycin alone. The test compounds were used at a fixed concentration of 25 μM. Bleomycin was used at a concentration of 0.5 μg/ml. The DEF was calculated from the formula: [formula]
GrowthTC is cell growth in presence of the test compound;
GrowthControl is cell growth of control cells;
Growthbleo is cell growth in presence of bleomycin; and
Growth(bleo+TC) is cell growth in presence of bleomycin and the test compound.
Cell growth was assessed using the sulforhodamine B (SRB) assay (Skehan, P., et al., 1990, J. Natl. Cancer Inst., 82, 1107-1112). 2,000 HeLa cells were seeded into each well of a flat-bottomed 96-well microtiter plate in a volume of 100 μl and incubated for 6 hours at 37° C. Cells were either replaced with media alone or with media containing the test compound at a final concentration of 25 μM. Cells were allowed to grow for a further 1 hour before the addition of bleomycin to either untreated cells or test compound treated cells. Cells untreated with either bleomycin or test compound were used as a control. Cells treated with test compound alone were used to assess the growth inhibition by the test compound.
Cells were left for a further 16 hours before replacing the media and allowing the cells to grow for a further 72 hours at 37° C. The media was then removed and the cells fixed with 100 μl of ice cold 10% (w/v) trichloroacetic acid. The plates were incubated at 4° C. for 20 minutes and then washed four times with water. Each well of cells was then stained with 100 μl of 0.4% (w/v) SRB in 1% acetic acid for 20 minutes before washing four times with 1% acetic acid. Plates were then dried for 2 hours at room temperature. The dye from the stained cells was solubilized by the addition of 100 μl of 10 mM Tris Base into each well. Plates were gently shaken and left at room temperature for 30 minutes before measuring the optical density at 564 nm on a Microquant microtiter plate reader.
Background: In SRB staining, fixed cells bind dye roughly in proportion to their protein.

Take `COc1ccc(Cc2cc3ccccc3c(=O)[nH]2)cc1` [Compound 1, 3-(4-methoxybenzyl)-1-isoquinolinone]: the melting point (commonly the temperature of the solid-liquid transition) was in the range of 216 to 218 °C. Besides, the “DEF (Dose Enhancing Factor)” value in the series with HeLa cells was 1.15.
Turning to `O=c1[nH]c(CCc2ccccc2)cc2ccccc12` [Compound 2, 3-(2-Phenylethyl)-1-isoquinolinone], the melting point lay within 198 to 200 °C. For the same molecule, in the series with HeLa cells, the “DEF (Dose Enhancing Factor)” value is on record as 1.4.
In the case of `CCC(c1ccccc1)c1cc2ccccc2c(=O)[nH]1` (stereo not drawn) [Compound 3, 3-(1-Phenylpropyl)-1-isoquinolinone], the melting point fell in the range of 179 to 180 °C.
The molecule `COc1cccc(Cc2cc3ccccc3c(=O)[nH]2)c1` [Compound 4, 3-(3-Methoxybenzyl)-1-isoquinolinone] returned a melting point of 208 to 210 °C. In addition, in the series on HeLa cells, the “DEF (Dose Enhancing Factor)” value amounted to 1.2.
For `O=c1[nH]c(Cc2ccccc2)cc2ccccc12` [Compound 5, 3-Benzyl-1-isoquinolinone], the melting point was in the range of 193 to 195 °C. The “DEF (Dose Enhancing Factor)” value in the series with HeLa cells was determined as 1.1.
The molecule `O=c1[nH]c(Cc2ccc(F)cc2)cc2ccccc12` [Compound 6, 3-(4-Fluorobenzyl)-1-isoquinolinone] yielded a melting point of 238 to 240 °C.
The molecule `O=c1[nH]c(Cc2cccc(O)c2)cc2ccccc12` [Compound 7, 3-(3-hydroxybenzyl)isoquinolinone] yielded a melting point of 225 to 227 °C. In addition, in the series on HeLa cells, the “DEF (Dose Enhancing Factor)” value turned out to be 1.2.
With `O=c1[nH]cc(Cc2ccccc2)c2ccccc12` [Compound 8, 4-benzyl-1-isoquinolinone], the melting point fell in the range of 217 to 220 °C.
On the same count and under the same terms, with `O=c1[nH]cc(Cc2ccc(F)cc2)c2ccccc12` [Compound 9, 4-(4-Fluorobenzyl)-1-isoquinolinone] the figure was 185 to 188 °C; with `O=c1[nH]cc(Cc2ccc(F)c(F)c2)c2ccccc12` [Compound 10, 4-(3,4-Difluorobenzyl)-1-isoquinolinone], 148 to 150 °C; with `O=c1[nH]cc(Cc2cccc(F)c2)c2ccccc12` [Compound 11, 4-(3-Fluorobenzyl)-1-isoquinolinone], 132 to 134 °C.
In the case of `N#Cc1cccc(Cc2c[nH]c(=O)c3ccccc23)c1` [Compound 12, 4-(3-Cyanobenzyl)-1-isoquinolinone], the melting point lay within 85 to 88 °C.
`O=c1[nH]cc(Cc2ccc(Br)cc2)c2ccccc12` [Compound 13, 4-(4-Bromobenzyl)-1-isoquinolinone]: the melting point lay within 180 to 182 °C.
